Measurements taken from article PMC9276671, “A first-in-human Phase I dose-escalation trial of the novel therapeutic peptide, ALM201, demonstrates a favourable safety profile in unselected patients with ovarian cancer and other advanced solid tumours” (British Journal of Cancer, 2022).
No end group written: not given here.

Experiment: Plasma pharmacokinetics of ALM201 in Phase I patients (validated LC-MS/MS, Phoenix WinNonlin)
Conditions: for AUC(0-t): AUC0-t; for AUC(0-t) / Cmax: Gmean (CV); for level at 0.25 h: day 1 cycle 1, 0.25 h after dosing; for level at 0.75 h: day 1 cycle 1, 0.75 h after dosing; for Tmax: median
[1] = cycle 1, excluding patient 03.012
[2] = human, plasma, sc, 10 mg, 10 mg SC, day 1 cycle 1, n = 1, plasma LC-MS/MS
[3] = human, plasma, sc, 10 mg, 10 mg SC, day 3 cycle 1, n = 1, plasma LC-MS/MS
[4] = human, plasma, sc, 10 mg, 10 mg SC, day 18 cycle 1, n = 1, plasma LC-MS/MS
[5] = human, plasma, sc, 10 mg, 10 mg SC, day 18 cycle 2, n = 1, plasma LC-MS/MS
[6] = human, plasma, sc, 10 mg, 10 mg SC, day 18 cycle 4, n = 1, plasma LC-MS/MS
[7] = human, plasma, sc, 10 mg, 10 mg SC, day 18 cycle 6, n = 1, plasma LC-MS/MS
[8] = human, plasma, sc, 10 mg, Plasma concentration, geometric mean (CV%), 10 mg SC, n = 1, LC-MS/MS
[9] = human, plasma, sc, 20 mg, 20 mg SC, day 1 cycle 1, n = 1, plasma LC-MS/MS
[10] = human, plasma, sc, 20 mg, 20 mg SC, day 3 cycle 1, n = 1, plasma LC-MS/MS
[11] = human, plasma, sc, 20 mg, 20 mg SC, day 18 cycle 1, n = 1, plasma LC-MS/MS
[12] = human, plasma, sc, 20 mg, 20 mg SC, day 18 cycle 2, n = 1, plasma LC-MS/MS
[13] = human, plasma, sc, 20 mg, Plasma concentration, geometric mean (CV%), 20 mg SC, n = 1, LC-MS/MS

IRQQPRDPPTETLELEVSPDPAS [ALM201]
Plasma concentration, geometric mean (CV%) (10 mg SC, day 1 cycle 1, 4 h after dosing, n = 1, LC-MS/MS): NQ (not quantifiable (less than assay limit of quantification of 100 ng/mL)) | Plasma concentration, geometric mean (CV%) (10 mg SC, day 1 cycle 1, 5 h after dosing, n = 1, LC-MS/MS): NQ (not quantifiable (less than assay limit of quantification of 100 ng/mL)) | Plasma concentration, geometric mean (CV%) (10 mg SC, day 1 cycle 1, 6 h after dosing, n = 1, LC-MS/MS): NQ (not quantifiable (less than assay limit of quantification of 100 ng/mL)) | Plasma concentration, geometric mean (CV%) (10 mg SC, day 1 cycle 1, 22 h after dosing, n = 1, LC-MS/MS): NQ (not quantifiable (less than assay limit of quantification of 100 ng/mL)) | Plasma concentration, geometric mean (CV%) (10 mg SC, day 3 cycle 1, 5 h after dosing, n = 1, LC-MS/MS): NQ (not quantifiable (less than assay limit of quantification of 100 ng/mL)) | Plasma concentration, geometric mean (CV%) (10 mg SC, day 18 cycle 1, 5 h after dosing, n = 1, LC-MS/MS): NQ (not quantifiable (less than assay limit of quantification of 100 ng/mL)) | Plasma concentration, geometric mean (CV%) (20 mg SC, day 1 cycle 1, 4 h after dosing, n = 1, LC-MS/MS): NQ (not quantifiable (less than assay limit of quantification of 100 ng/mL)) | Plasma concentration, geometric mean (CV%) (20 mg SC, day 1 cycle 1, 5 h after dosing, n = 1, LC-MS/MS): NQ (not quantifiable (less than assay limit of quantification of 100 ng/mL)) | Plasma concentration, geometric mean (CV%) (20 mg SC, day 1 cycle 1, 6 h after dosing, n = 1, LC-MS/MS): NQ (not quantifiable (less than assay limit of quantification of 100 ng/mL)) | Plasma concentration, geometric mean (CV%) (20 mg SC, day 1 cycle 1, 22 h after dosing, n = 1, LC-MS/MS): NQ (not quantifiable (less than assay limit of quantification of 100 ng/mL)) | Plasma concentration, geometric mean (CV%) (20 mg SC, day 3 cycle 1, 5 h after dosing, n = 1, LC-MS/MS): NQ (not quantifiable (less than assay limit of quantification of 100 ng/mL)) | Plasma concentration, geometric mean (CV%) (20 mg SC, day 18 cycle 1, 5 h after dosing, n = 1, LC-MS/MS): NQ (not quantifiable (less than assay limit of quantification of 100 ng/mL)) | Tmax, median (20 mg SC, day 18 cycle 2, n = 1, plasma LC-MS/MS): 1 h | Plasma concentration, geometric mean (CV%) (40 mg SC, day 1 cycle 1, 6 h after dosing, n = 1, LC-MS/MS): NQ (not quantifiable (less than assay limit of quantification of 100 ng/mL)) | Plasma concentration, geometric mean (CV%) (40 mg SC, day 1 cycle 1, 22 h after dosing, n = 1, LC-MS/MS): NQ (not quantifiable (less than assay limit of quantification of 100 ng/mL)) | Cmax, Gmean (CV) (40 mg SC, day 18 cycle 2, n = 1, plasma LC-MS/MS): 583 ng/mL | Plasma concentration, geometric mean (CV%) (80 mg SC, day 1 cycle 1, 22 h after dosing, n = 3, LC-MS/MS): NQ (not quantifiable (less than assay limit of quantification of 100 ng/mL)) | Tmax, median (80 mg SC, day 3 cycle 1, n = 3, plasma LC-MS/MS): 1.5 h | Plasma concentration, geometric mean (CV%) (100 mg SC, day 1 cycle 1, 22 h after dosing, n = 4, LC-MS/MS): NQ (not quantifiable (less than assay limit of quantification of 100 ng/mL)) | Plasma concentration, geometric mean (CV%) (160 mg SC, day 1 cycle 1, 22 h after dosing, n = 3, LC-MS/MS): NQ (not quantifiable (less than assay limit of quantification of 100 ng/mL)) | Tmax, median (160 mg SC, day 3 cycle 1, n = 3, plasma LC-MS/MS): 1.52 h | Tmax, median (160 mg SC, day 18 cycle 1, n = 3, plasma LC-MS/MS): 1.5 h | Plasma concentration, geometric mean (CV%) (200 mg SC, day 1 cycle 1, 22 h after dosing, n = 4, LC-MS/MS): NQ (not quantifiable (less than assay limit of quantification of 100 ng/mL)) | AUC0-t, Gmean (CV) (200 mg SC, day 18 cycle 2, n = 2, CV not calculated, plasma LC-MS/MS): 5680 ng·h/mL | Plasma concentration, geometric mean (CV%) (300 mg SC, day 1 cycle 1, 22 h after dosing, n = 3, LC-MS/MS): NQ (not quantifiable (less than assay limit of quantification of 100 ng/mL)) | AUC0-t, Gmean (CV) (300 mg SC, day 18 cycle 1, n = 3, plasma LC-MS/MS): 12,100 (6) ng.h/mL | Tmax, median (300 mg SC, day 18 cycle 2, n = 3, plasma LC-MS/MS): 2 h | Day 18:day 1 AUC0-t ratio, mean ± SD (cycle 1, all patients): 1.27 ± 1.32 | Day 18:day 1 Cmax ratio, mean ± SD (cycle 1, all patients): 1.25 ± 0.97 | Day 18:day 1 AUC0-t ratio, mean ± SD [1]: 0.95 ± 0.26 | Day 18:day 1 Cmax ratio, mean ± SD [1]: 1.03 ± 0.39 | Half-life (human, plasma, sc): ~1.5 h | AUC(0-t) [2]: 485 ng·h/mL | AUC(0-t) [3]: 868 ng·h/mL | AUC(0-t) [4]: 817 ng·h/mL | AUC(0-t) [5]: 702 ng·h/mL | AUC(0-t) [6]: 476 ng·h/mL | AUC(0-t) [7]: 1040 ng·h/mL | Cmax [2]: 200 ng/mL | Cmax [3]: 406 ng/mL | Cmax [4]: 352 ng/mL | Cmax [5]: 288 ng/mL | Cmax [6]: 193 ng/mL | Cmax [7]: 470 ng/mL | level at 0.25 h [8]: 106 ng/mL | level at 0.75 h [8]: 150 ng/mL | level at 1.5 h (human, plasma, sc, 10 mg, Plasma concentration, geometric mean (CV%), 10 mg SC, day 1 cycle 1, 1.5 h after dosing, n = 1, LC-MS/MS): 200 ng/mL | level at 2 h (human, plasma, sc, 10 mg, Plasma concentration, geometric mean (CV%), 10 mg SC, day 1 cycle 1, 2 h after dosing, n = 1, LC-MS/MS): 199 ng/mL | level at 3 h (human, plasma, sc, 10 mg, Plasma concentration, geometric mean (CV%), 10 mg SC, day 1 cycle 1, 3 h after dosing, n = 1, LC-MS/MS): 153 ng/mL | level at 0.5 h (human, plasma, sc, 10 mg, Plasma concentration, geometric mean (CV%), 10 mg SC, day 3 cycle 1, 0.5 h after dosing, n = 1, LC-MS/MS): 406 ng/mL | level at 1 h (human, plasma, sc, 10 mg, Plasma concentration, geometric mean (CV%), 10 mg SC, day 3 cycle 1, 1 h after dosing, n = 1, LC-MS/MS): 325 ng/mL | level at 1.5 h (human, plasma, sc, 10 mg, Plasma concentration, geometric mean (CV%), 10 mg SC, day 3 cycle 1, 1.5 h after dosing, n = 1, LC-MS/MS): 294 ng/mL | level at 2 h (human, plasma, sc, 10 mg, Plasma concentration, geometric mean (CV%), 10 mg SC, day 3 cycle 1, 2 h after dosing, n = 1, LC-MS/MS): 242 ng/mL | level at 3.5 h (human, plasma, sc, 10 mg, Plasma concentration, geometric mean (CV%), 10 mg SC, day 3 cycle 1, 3.5 h after dosing, n = 1, LC-MS/MS): 127 ng/mL | level at 0.5 h (human, plasma, sc, 10 mg, Plasma concentration, geometric mean (CV%), 10 mg SC, day 18 cycle 1, 0.5 h after dosing, n = 1, LC-MS/MS): 188 ng/mL | level at 1 h (human, plasma, sc, 10 mg, Plasma concentration, geometric mean (CV%), 10 mg SC, day 18 cycle 1, 1 h after dosing, n = 1, LC-MS/MS): 283 ng/mL | level at 1.5 h (human, plasma, sc, 10 mg, Plasma concentration, geometric mean (CV%), 10 mg SC, day 18 cycle 1, 1.5 h after dosing, n = 1, LC-MS/MS): 352 ng/mL | level at 2 h (human, plasma, sc, 10 mg, Plasma concentration, geometric mean (CV%), 10 mg SC, day 18 cycle 1, 2 h after dosing, n = 1, LC-MS/MS): 325 ng/mL | level at 3.5 h (human, plasma, sc, 10 mg, Plasma concentration, geometric mean (CV%), 10 mg SC, day 18 cycle 1, 3.5 h after dosing, n = 1, LC-MS/MS): 113 ng/mL | level at 0.5 h (human, plasma, sc, 10 mg, Plasma concentration, geometric mean (CV%), 10 mg SC, day 18 cycle 2, 0.5 h after dosing, n = 1, LC-MS/MS): 158 ng/mL | level at 1 h (human, plasma, sc, 10 mg, Plasma concentration, geometric mean (CV%), 10 mg SC, day 18 cycle 2, 1 h after dosing, n = 1, LC-MS/MS): 193 ng/mL | level at 1.5 h (human, plasma, sc, 10 mg, Plasma concentration, geometric mean (CV%), 10 mg SC, day 18 cycle 2, 1.5 h after dosing, n = 1, LC-MS/MS): 242 ng/mL | level at 2 h (human, plasma, sc, 10 mg, Plasma concentration, geometric mean (CV%), 10 mg SC, day 18 cycle 2, 2 h after dosing, n = 1, LC-MS/MS): 288 ng/mL | level at 3.5 h (human, plasma, sc, 10 mg, Plasma concentration, geometric mean (CV%), 10 mg SC, day 18 cycle 2, 3.5 h after dosing, n = 1, LC-MS/MS): 161 ng/mL | level at 1 h (human, plasma, sc, 10 mg, Plasma concentration, geometric mean (CV%), 10 mg SC, day 18 cycle 4, 1 h after dosing, n = 1, LC-MS/MS): 176 ng/mL | level at 1.5 h (human, plasma, sc, 10 mg, Plasma concentration, geometric mean (CV%), 10 mg SC, day 18 cycle 4, 1.5 h after dosing, n = 1, LC-MS/MS): 193 ng/mL | level at 2 h (human, plasma, sc, 10 mg, Plasma concentration, geometric mean (CV%), 10 mg SC, day 18 cycle 4, 2 h after dosing, n = 1, LC-MS/MS): 171 ng/mL | level at 3.5 h (human, plasma, sc, 10 mg, Plasma concentration, geometric mean (CV%), 10 mg SC, day 18 cycle 4, 3.5 h after dosing, n = 1, LC-MS/MS): 157 ng/mL | level at 0.5 h (human, plasma, sc, 10 mg, Plasma concentration, geometric mean (CV%), 10 mg SC, day 18 cycle 6, 0.5 h after dosing, n = 1, LC-MS/MS): 171 ng/mL | level at 1.5 h (human, plasma, sc, 10 mg, Plasma concentration, geometric mean (CV%), 10 mg SC, day 18 cycle 6, 1.5 h after dosing, n = 1, LC-MS/MS): 470 ng/mL | level at 2 h (human, plasma, sc, 10 mg, Plasma concentration, geometric mean (CV%), 10 mg SC, day 18 cycle 6, 2 h after dosing, n = 1, LC-MS/MS): 403 ng/mL | level at 3.5 h (human, plasma, sc, 10 mg, Plasma concentration, geometric mean (CV%), 10 mg SC, day 18 cycle 6, 3.5 h after dosing, n = 1, LC-MS/MS): 179 ng/mL | Tmax [2]: 1.45 h | Tmax [3]: 0.5 h | Tmax [4]: 1.58 h | Tmax [5]: 2 h | Tmax [6]: 1.53 h | Tmax [7]: 1.85 h | AUC(0-t) [9]: 1040 ng·h/mL | AUC(0-t) [10]: 1160 ng·h/mL | AUC(0-t) [11]: 718 ng·h/mL | AUC(0-t) [12]: 1020 ng·h/mL | Cmax [9]: 542 ng/mL | Cmax [10]: 614 ng/mL | Cmax [11]: 319 ng/mL | Cmax [12]: 394 ng/mL | level at 0.25 h [13]: 136 ng/mL | level at 0.75 h [13]: 368 ng/mL
